Tested on: 883617-216-R-J1-PDC complex spheroid viability
Assay: Anticancer human tumor 883617-216-R-J1-PDC patient-derived bladder carcinoma cell line growth inhibition [POLQ]
Details: for IC50: curve of first compound; for viability, T/C: stronger effect = lower value
In short: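 Patient-derived tumour cells were co-cultured with HUVEC and mesenchymal stem cells as multicellular spheroids at 37 °C. They were treated with POLQ inhibitors (novobiocin, ART-558, RP6685) alone or combined with other agents. Top concentrations were at or near clinical Cmax (otherwise 10 microM; SN-38 at 1 microM), decreasing in half-log steps.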

[1] = second compound 0.0316 µM, first compound 0.0316 µM
[2] = second compound 0.0316 µM, first compound 0.1 µM
[3] = second compound 0.0316 µM, first compound 0.316 µM
[4] = second compound 0.0316 µM, first compound 1 µM
[5] = second compound 0.0316 µM, first compound 3.16 µM
[6] = second compound 0.0316 µM, first compound 10 µM
[7] = second compound 0.1 µM, first compound 0.0316 µM
[8] = second compound 0.1 µM, first compound 0.1 µM
[9] = second compound 0.1 µM, first compound 0.316 µM
[10] = second compound 0.1 µM, first compound 1 µM
[11] = second compound 0.1 µM, first compound 3.16 µM
[12] = second compound 0.1 µM, first compound 10 µM
[13] = second compound 0.316 µM, first compound 0.0316 µM
[14] = second compound 0.316 µM, first compound 0.1 µM
[15] = second compound 0.316 µM, first compound 0.316 µM
[16] = second compound 0.316 µM, first compound 1 µM
[17] = second compound 0.316 µM, first compound 3.16 µM
[18] = second compound 0.316 µM, first compound 10 µM
[19] = second compound 1 µM, first compound 0.0316 µM
[20] = second compound 1 µM, first compound 0.1 µM
[21] = second compound 1 µM, first compound 0.316 µM
[22] = second compound 1 µM, first compound 1 µM
[23] = second compound 1 µM, first compound 3.16 µM
[24] = second compound 1 µM, first compound 10 µM
[25] = second compound 3.16 µM, first compound 0.0316 µM
[26] = second compound 3.16 µM, first compound 0.1 µM
[27] = second compound 3.16 µM, first compound 0.316 µM
[28] = second compound 3.16 µM, first compound 1 µM
[29] = second compound 3.16 µM, first compound 3.16 µM
[30] = second compound 3.16 µM, first compound 10 µM
[31] = second compound 10 µM, first compound 0.0316 µM
[32] = second compound 10 µM, first compound 0.1 µM
[33] = second compound 10 µM, first compound 0.316 µM
[34] = second compound 10 µM, first compound 1 µM
[35] = second compound 10 µM, first compound 3.16 µM
[36] = second compound 10 µM, first compound 10 µM
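Note: spheroids exposed to compounds for seven days before readout.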
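Throughout, for viability, T/C: 100% = DMSO vehicle control viability.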

## Nc1ccn(C2OC(CO)C(O)C2(F)F)c(=O)n1 (centres undefined) + COC1C(OC(N)=O)C(O)C(Oc2ccc3c(O)c(NC(=O)c4ccc(O)c(CC=C(C)C)c4)c(=O)oc3c2C)OC1(C)C
Second compound 0.0316 µM
  IC50: < 0.0316 µM
Second compound 0.1 µM
  IC50: < 0.0316 µM
Second compound 0.316 µM
  IC50: < 0.0316 µM
Second compound 1 µM
  IC50: < 0.0316 µM
Second compound 3.16 µM
  IC50: < 0.0316 µM
Second compound 10 µM
  IC50: < 0.0316 µM
[1]
  viability, T/C: 25.9%
[2]
  viability, T/C: 30%
[3]
  viability, T/C: 35.5%
[4]
  viability, T/C: 36.7%
[5]
  viability, T/C: 28.9%
[6]
  viability, T/C: 36.5%
[7]
  viability, T/C: 31%
[8]
  viability, T/C: 34.8%
[9]
  viability, T/C: 47%
[10]
  viability, T/C: 39%
[11]
  viability, T/C: 38.2%
[12]
  viability, T/C: 31.2%
[13]
  viability, T/C: 25.5%
[14]
  viability, T/C: 35.1%
[15]
  viability, T/C: 36.9%
[16]
  viability, T/C: 34.3%
[17]
  viability, T/C: 40.6%
[18]
  viability, T/C: 32.1%
[19]
  viability, T/C: 28.8%
[20]
  viability, T/C: 37.7%
[21]
  viability, T/C: 42.1%
[22]
  viability, T/C: 41.7%
[23]
  viability, T/C: 31.1%
[24]
  viability, T/C: 26.9%
[25]
  viability, T/C: 30.6%
[26]
  viability, T/C: 32.6%
[27]
  viability, T/C: 39.9%
[28]
  viability, T/C: 33.5%
[29]
  viability, T/C: 35.2%
[30]
  viability, T/C: 28%
[31]
  viability, T/C: 29.3%
[32]
  viability, T/C: 31.3%
[33]
  viability, T/C: 34.9%
[34]
  viability, T/C: 35%
[35]
  viability, T/C: 32.3%
[36]
  viability, T/C: 32.1%

## O=C(c1cc(Cc2n[nH]c(=O)c3ccccc23)ccc1F)N1CCN(C(=O)C2CC2)CC1 + COC1C(OC(N)=O)C(O)C(Oc2ccc3c(O)c(NC(=O)c4ccc(O)c(CC=C(C)C)c4)c(=O)oc3c2C)OC1(C)C
Second compound 0.0316 µM
  IC50: > 10 µM
Second compound 0.1 µM
  IC50: > 10 µM
Second compound 0.316 µM
  IC50: > 10 µM
Second compound 1 µM
  IC50: > 10 µM
Second compound 3.16 µM
  IC50: > 10 µM
Second compound 10 µM
  IC50: > 10 µM
[1]
  viability, T/C: 106%
[2]
  viability, T/C: 98%
[3]
  viability, T/C: 103%
[4]
  viability, T/C: 99.1%
[5]
  viability, T/C: 72.5%
[6]
  viability, T/C: 62.9%
[7]
  viability, T/C: 91%
[8]
  viability, T/C: 88.5%
[9]
  viability, T/C: 88.9%
[10]
  viability, T/C: 97.4%
[11]
  viability, T/C: 81.6%
[12]
  viability, T/C: 63%
[13]
  viability, T/C: 96.1%
[14]
  viability, T/C: 87.6%
[15]
  viability, T/C: 100%
[16]
  viability, T/C: 92.3%
[17]
  viability, T/C: 78%
[18]
  viability, T/C: 70.3%
[19]
  viability, T/C: 97.4%
[20]
  viability, T/C: 85.5%
[21]
  viability, T/C: 109%
[22]
  viability, T/C: 91.9%
[23]
  viability, T/C: 96.1%
[24]
  viability, T/C: 63.5%
[25]
  viability, T/C: 91.2%
[26]
  viability, T/C: 87.8%
[27]
  viability, T/C: 95.8%
[28]
  viability, T/C: 89%
[29]
  viability, T/C: 79.1%
[30]
  viability, T/C: 65.3%
[31]
  viability, T/C: 94%
[32]
  viability, T/C: 91.6%
[33]
  viability, T/C: 94.8%
[34]
  viability, T/C: 73.3%
[35]
  viability, T/C: 98.7%
[36]
  viability, T/C: 74.5%

From PubChem BioAssay AID1963833 (Molecular Pharmacology Branch, DTP, NCI, 2024)
